The record followed here is article PMC8546421, “Molecular modelling of the FOXO4-TP53 interaction to design senolytic peptides for the elimination of senescent cancer cells” (EBioMedicine, 2021).

Where no end group is shown, it is not given here.

Test [1] deals with senescent A375 human melanoma cells. Kind of test: Orthotopic xenograft of senescent luciferase A375 cells in mouse ears. It counts as in vivo. Particulars: NSG mouse ears, local injection 50 µL of 5 mg/mL once daily for two days, imaged 24 hours after second treatment; ANOVA p<0.01. The text has this:
Mice were aged between 3-8 months and 20-30 g in weight and were housed in specific pathogen free cages. Animals were randomly distributed among treatment groups by assigning mice within the same cage to different treatment regimens. To minimise confounders, mouse treatment order was randomised within each cage. Male and female mice were distributed between all treatment groups since the chemicals used were directly injected and are not metabolized. Researchers were not blinded to the group allocation, but all attempts were made to analyse the data without knowing treatment conditions. NOD.Cg-Prkdcscid Il2rgtm1Wjl/SzJ (NSG) were purchased from The Jackson Laboratory (IMSR Cat# JAX:005557, RRID:IMSR_JAX:005557). NOD.Cg-KitW-41J Tyr + Prkdcscid Il2rgtm1Wjl/ThomJ (NBSGW) were purchased from The Jackson Laboratory (IMSR Cat# JAX:026622, RRID:IMSR_JAX:026622). Immunocompromised mice used for these experiments were all in the NSG background; however, some mice were F1 generation of NSG x NBSGW, thus the brown coat colour as NBSGW mice have tyrosinase. Xenografts containing senescent cells were established by injecting A375-Luc/iRFP human melanoma cells which contained a luciferase expressing gene into immunocompromised NSG ears. Senescence was induced in the cells via doxorubicin treatment (40 nM) then resuspended in DMEM prior to injection. Each ear was then injected with 50 µL containing approximately 1,000,000 cells. The ears were treated once daily for two days with 50 µL of either 5 mg/mL peptide, or saline. To control for confounders, each mouse contained one ear treated with saline (control). For imaging, mice were injected with 3 mg luciferin intravenously and imaged before and after treatment. Transgenic mice (BrafCA, PtenloxP, Tyr::CreERT2) were purchased from The Jackson Laboratory (IMSR Cat# JAX:013590, RRID:IMSR_JAX:013590). These mice were maintained on a C57Bl6 background and all experimental mice contained Tyr::CreER with either Braf^CA/+, Pten^fx/+; Braf^CA/CA, Pten^fx/+, or Braf^CA/+, Pten^fx/fx. […] Hypopigmented melanomas sporadically formed over the next 3-5 months, typically on the back of the mouse. These melanomas were then directly injected with 100 µL of either 20 mg/mL ES2+10%DMSO, saline+10%DMSO, saline+10%Dabrafenib, or 20 mg/mL ES2+10%Dabrafenib. The researchers were not blinded to the experiment, but each mouse contained an internal control and all imaging was done with the same exposure times based upon control tissue. For survival analyses, either 750,000 or 25,000 A375-Luc/iRFP cells were injected intradermally into NSG mice. Different combinations of drugs were locally injected to the region once daily for two days with 50 µL of either 5 mg/mL ES2, 10%Dabrafenib, or 5mg/mL ES2+10%Dabrafenib. Dabrafenib was made at 100 mg/mL in DMSO. Mice were then monitored daily and allowed to age until a humane endpoint was reached according to our IACUC protocol, which in this case was tumours of 2 cm in size. Aged C57Bl6 male mice were purchased from the Jackson Laboratory (IMSR Car# JAX:000664, RRID:IMSR_JAX:000664) at 72 weeks of age and were started on the experiment at 82 weeks. Mice were treated with 3 mg of ES2 via tail vein injection weekly for three weeks and weighed weekly. Blood was drawn prior to beginning experiments and at the endpoint. To generate plasma, blood was centrifuged at 1,500g for 10 minutes, then 2,500g for 10 minutes, then frozen for later analyses. […]

A further test deals with FOXO4-TP53 foci. As to the kind of experiment: Proximity Ligation Assay. As to conditions: 8 µM ES2, 1 hour. Format: cell-based, human. The protocol: Senescent and dividing A375 cells were plated in 96-well plates (Cellvis P96-1.5P) at concentration of 20,000 cells per well. The following day, the cells were treated with 8 µM ES2 for 0, 1, and 4 hours. The plate was then fixed with 4% paraformaldehyde for 10 minutes at room temperature. Cells were washed with PBS twice then permeabilized with 0.1% Triton™ X-100 in PBS for 15 minutes. The duolink® In Situ Red Starter Kit Mouse/Rabbit was then used according to manufacturer's protocol with exception of 1:10 dilution of PLUS and MINUS PLA probes. Primary antibodies used were FOXO4 (Cell Signaling Technology Cat# 9472, RRID:AB_10831833, diluted 1:1000), TP53BP1 (BD Biosciences Cat# 612523, RRID:AB_399824, diluted 1:2000), and TP53 (Santa Cruz Cat# sc-126, RRID:AB_628082, diluted 1:500). Z-stacks with 0.34 um steps were captured on a Zeiss Axio Observer Z.1 inverted microscope using a Plan-Apochromat 40 × 0.95 NA lens. The system is setup for widefield fluorescence imaging using a Colibri 7 LED source and a Hamamatsu Orca-flash 4.0 LT black and white camera. The widefield z-stacks were flattened into maximum intensity projections as a pre-processing step before the analysis. Fluorescent foci were counted using the Zeiss Zen software Analysis feature. Briefly, the DAPI staining was used to define the nuclear regions. […] The total number of foci per nucleus was recorded.

Test [2] has as its system Braf/Pten sporadic melanomas. As to the kind of experiment: TUNEL staining of melanomas in transgenic mice. It counts as in vivo, mouse. As to conditions: intratumoural injection daily over two days; single agents vs saline.
Description: Fixed frozen sections of melanomas were stained with the Click-IT Plus TUNEL assay (ThermoFisher C10618) according to the manufacturer's protocol. Stained sections were imaged with a Zeiss A2 upright microscope at either 20x or 10x. At least one of each treatment group were stained and imaged at the same time. All sections from each staining group were set to the same exposure time for TUNEL and DAPI. Any normalization of background levels was performed in Adobe Photoshop and set to the same scale for the entire image and for all other images.

On to “PRKGGRRRRAWGRRRRRRRRRRRRRRAPRKRLTLA [ES2]”, for which, in test [1], the “luciferase signal compared to E1 and saline” value is “statistically significantly reduced luciferase signal”. Besides, the “effect on FOXO4-TP53 foci in dividing cells” value with FOXO4-TP53 foci (dividing A375 cells) is listed as “no effect on FOXO4-TP53 foci in dividing cells”. For the same sequence, in the test on FOXO4-TP53 foci (senescent A375 cells), the “reduction of FOXO4-TP53 foci in senescent cells” value amounted to 2 fold. In test [2], the “effect on apoptosis (TUNEL), in words” value was “no difference”.
